We go through 61 compounds from a melting point compilation (Tetko et al.; mined from patent text by program, amines drawn as free bases though some values may be those of a salt).

SMILES strings stand for the structures. Where only a bound is given, the exact number is not on record here.

What is called melting point is the temperature, or range, at which the solid turns liquid.

On to `NCCNC(=O)CCCOc1ccc(C2=NNC(=O)CC2)cc1`, for which the melting point was in the range of 174 to 175 °C.

The compound `Nc1ccccc1C(=O)C1CC1` returned a melting point of 46 to 48 °C.

As for `CCCc1c(C(=O)C=C(C)C)c2ccc(C(N)=O)cc2n1Cc1cc2c(cc1Cl)OCO2`, the melting point fell in the range of 227 to 229 °C.

In turn, `c1ccc2c(c1)OCC(CN1CCC(CNc3nc4cnccc4s3)CC1)O2` (stereo unspecified) showed a melting point of 147 °C.

For the compound `CSc1nc(-c2cccnc2)n(-c2ccc(C)c(C)c2)c(=O)c1C#N`, the melting point was greater than 250 °C.

Regarding `COn1c(C)nc2cc(C(=O)c3ccccc3)ccc21`, the melting point worked out at 67.7 °C.

Take `O=C(O)C(CCc1ccccc1)CC(CCc1ccccc1)C(=O)O` (stereo unspecified): the melting point lay in the range of 95 to 105 °C.

`COc1ccc2nc(Cl)cc(C=CN(C)C)c2c1` registered a melting point of 162 to 164 °C.

`O=[N+]([O-])c1ccc(NS(=O)(=O)c2ccccc2)cc1` registered a melting point of 137 °C.

`O=C1CN2C(=O)C(c3ccccc3)(c3ccccc3)c3cccc(c32)N1`: the melting point lay in the range of 235 to 255 °C.

For the compound `O=C(O)COc1ccc(-c2c(Br)ccc3sc4ccccc4c23)cc1`, the melting point was determined as 210 °C.

Compound `CSC(=NCCN1CCC(c2noc3cc(F)ccc23)CC1)NC#N` registered a melting point of 148 to 151 °C.

The compound `CCN(CC)OC(=Nc1c(C(C)C)cccc1C(C)C)Nc1c(C(C)C)cccc1C(C)C` displayed a melting point of 113 to 116 °C.

Turning to `CCOc1nn(-c2ccc(C(F)(F)F)cn2)cc1CCCOc1ccc(Cl)cc1CC(=O)O`, the melting point was in the range of 130 to 131 °C.

In turn, `CC1(C)CCC(C)(C)c2cc(C(C(=O)O)C(=O)Nc3ccc(C(=O)O)cc3)ccc21` (stereo unspecified) yielded a melting point of 213 to 214 °C.

As for `Cc1nc(N2CCN(CC3CC3(F)F)C2=O)sc1C(=O)NCc1ncco1` (stereo unspecified), the melting point lay within 156 to 158 °C.

`Cc1cc(-c2nncc3c(C(C)(C)C)c(OCc4ccccn4)nn23)no1` came in with a melting point of 175 to 178 °C.

As to `O=c1[nH]nc2c3cccc(Cl)c3[nH]c(=O)n12`, the melting point lay in the range of 348 to 350 °C.

For `COC(=O)c1ccc([N+](=O)[O-])cc1C#CC(C)(C)C`, the melting point was 88 to 89 °C.

Take `CNC(=NC#N)NCCCCc1csc(NC(=N)N)n1`: the melting point lay in the range of 165 to 168 °C.

Take `Cc1cc(C)nc(NC(=O)NS(=O)(=O)c2c(Cl)c(C)nn2C)n1`: the melting point was 191 to 194 °C.

Consider `CCOC1=NC(OC)=NS(=O)(=O)N1C(C)C`, for which the melting point fell in the range of 81 to 85 °C.

Consider `CC(=O)Nc1cn2cc(Sc3ccccc3)ccc2n1`, for which the melting point lay in the range of 257 to 259 °C.

Consider `O=c1oc2c(c(O)c1C1(c3ccccc3)CCC1)CCCCCC2`, for which the melting point was 240 to 241 °C.

Compound `CC(C)c1ccc(N(Cc2ccc(OCc3ccccc3)cc2)C(=O)C2CCCc3ccccc32)cc1` (stereo unspecified) had a melting point of 120 to 121 °C.

For the compound `Cc1ccc(Cc2cnc(NCC(O)COc3cccc(CN4CCCCC4)c3)[nH]c2=O)cn1` (stereo unspecified), the melting point is 115 to 117 °C.

Consider `Cn1c(=O)[nH]c(=O)n(-c2cc(Oc3ncc(C(F)(F)F)cc3Cl)ccc2Br)c1=O`, for which the melting point was in the range of 97 to 110 °C.

As for `Clc1nc2ccccc2c2c(CCC3CCNCC3)n(-c3ccccc3)nc12`, the melting point came to 194 °C.

Turning to `O=c1oc2c(Cl)cccc2c(O)c1-c1ccccc1`, the melting point came to 245 °C.

Turning to `CCCCN(CCCC)C(=O)c1cc2ccccc2c(-c2ccccc2)n1`, the melting point worked out at 62 °C.

Consider `O=C(c1ccccc1)c1cnn2cccnc12`, for which the melting point fell in the range of 174 to 175 °C.

With `CS(=O)(=O)c1ccc(/C(=C2\CCN(CCC(=O)O)C2=O)c2ccc(Cl)cc2)cc1`, the melting point lay in the range of 178 to 179 °C.

`CCC(=S)Nc1c(SC(F)(F)F)c(C#N)nn1-c1c(Cl)cc(C(F)(F)F)cc1SC` gave a melting point of 153 to 155 °C.

For `CS(=O)(=O)c1ccc(CN(C2CCOCC2)S(=O)(=O)c2ccc(Cl)cc2)cc1`, the melting point is 158 to 160 °C.

Regarding `CSc1cc2c(cc1C(F)(F)F)N(C(=O)Nc1ccc(Oc3ccccc3)nc1)CC2`, the melting point lay in the range of 86 to 88 °C.

Consider `C#CCSc1ccncc1`, for which the melting point fell in the range of 55 to 56 °C.

Take `CCOC(=O)C(CC)Sc1nc2c(c(=O)n(CCOC)c(=O)n2C)n1Cc1cccc(Br)c1` (stereo unspecified): the melting point was determined as 58 °C.

The compound `CC(=NOc1cccc(C(F)(F)F)c1)c1cc(Cl)ccc1NS(=O)(=O)C(F)(F)F` displayed a melting point of 63 to 64 °C.

Regarding `O=C(OCC(Cl)(Cl)Cl)Oc1cc2occ(C(=O)O)c(=O)c2cc1OC(=O)OCC(Cl)(Cl)Cl`, the melting point was 166 to 167 °C.

Turning to `CC(=O)CC(=O)N(C)c1cccc(-c2ccc3nnc(C)n3n2)c1`, the melting point lay in the range of 138 to 141 °C.

`CC(C)(C)C(=O)C(O)C(OS(=O)(=O)C(F)(F)F)C1OC(O)(C(=O)C(C)(C)C)C(O)(C(=O)C(C)(C)C)C1(O)C(=O)C(C)(C)C` (stereo unspecified) displayed a melting point of 109 to 112 °C.

Consider `Cc1c2ccnc(Cl)c2cc2c1[nH]c1ccncc12`, for which the melting point is greater than 263 °C.

The compound `O=C(O)Cc1csc(-c2cccc(O)c2)n1` displayed a melting point of 172 to 174 °C.

Take `COCCn1nnnc1C1(c2cccc(C(F)(F)F)c2)C=CC(O)=CC1O` (stereo unspecified): the melting point was 115 to 156 °C.

Turning to `Nc1nc2cc(-c3cccc(C(=O)N4CCCC4)c3)ccc2c2c1nc(CO)n2CC1CCOCC1`, the melting point was in the range of 281 to 284 °C.

`Cc1cc2c(nc1C(O)c1cccnc1)CCCCC2` (stereo unspecified): the melting point fell in the range of 124 to 126 °C.

In turn, `COc1cccc(NC(SC)=C(C#N)S(=O)(=O)C(C)C)c1` came in with a melting point of 107 to 110 °C.

In turn, `CCCc1c(OCCCOc2cccc3c2CCCC3)ccc2c1OC(CCC(O)CO)(CCC(O)CO)CC2=O` (stereo unspecified) yielded a melting point of 113 to 115 °C.

`O=C(N[C@H]1CC[C@H](CCN2CCC(c3cccc4c3CCO4)CC2)CC1)c1ccc(Cl)cc1` yielded a melting point of 224 °C.

The compound `O=c1[nH]c2c3ccccc3ccc2n(CC2CC2)c1=O` returned a melting point of 292 °C.

As for `N#Cc1cc(C(=O)NNC(=O)c2occc2-c2ccccc2Cc2ccccc2)ccc1O`, the melting point fell in the range of 175 to 176 °C.

Take `O=C(O)Cc1c(-c2ccccc2)c2cc3c(cc2oc1=O)C(=O)OC3`: the melting point lay in the range of 226 to 227 °C.

Compound `CCc1cc(C#N)sc1-c1ccc2c(c1)C(C)(C)OC(=O)N2` came in with a melting point of 160 to 162 °C.

`CCCNc1nc2ccccn2c(=O)c1-c1ccc(NC2CCN(C(=O)OC(C)(C)C)C2)cc1` (stereo unspecified) registered a melting point of 187 to 190 °C.

In turn, `C[C@H](C(=O)O)c1ccc2cc(OCCCCCCc3ccc(OCc4ccccc4)c(OCc4ccccc4)c3)ccc2c1` registered a melting point of 80 to 82 °C.

Compound `COC(=O)C(Oc1ccc(Cl)cc1)c1ccc(Oc2ccc(S(C)(=O)=O)cc2)cc1` (stereo unspecified) registered a melting point of 182 to 183 °C.

`CCOC(=O)c1cn(C)c2nc3cc(N4CCNC(Cc5ccccc5)C4)c(F)cc3cc2c1=O` (racemic) registered a melting point of 190 °C.

Take `O=c1c2ccccc2nc(-c2cc(-c3ccncc3)c(N3CCOCC3)s2)n1-c1ccc(Cl)cc1`: the melting point lay in the range of 195 to 197 °C.

`CSc1ncnc2c(N3CCSCC3)nc(N3CCNCC3)nc12`: the melting point fell in the range of 177 to 179 °C.

`COC(=O)CC(C#N)c1cccc2ccc(OC)cc12` (stereo unspecified) yielded a melting point of 113 to 114 °C.

In the case of `COC(=O)C(C)Oc1c(C#N)cnn1-c1ccc(C(F)(F)F)cc1Cl` (stereo unspecified), the melting point lay in the range of 82 to 85 °C.
